Where only a bound is given, the exact number is not on record here.

Holding throughout (assay type): cell-based
The subject of assay [1] is RT-112 (FGFR3-Tacc3 fusion) cells. The assay can be described thus: cell proliferation assay (CellTiterGlo), RT-112 cells. Conditions: Homo sapiens, RT-112, RT112 cells, 72 hours. In a few lines:
(§1)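 Suspended cells plated; DMSO or compound dose range added; intracellular ATP read by CellTiterGlo luminescence; IC50 vs vehicle-normalized viability.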
On the technique in general: In ATP-based viability assays light output follows the ATP content of the culture.

In assay [2] the test system is UM-UC-14 (FGFR3-S249C) cells. The assay can be described thus: cell proliferation assay (CellTiterGlo), UM-UC-14 cells. In a few lines:
as §1

Assay [3] has as its system SNU-16 (FGFR2-amplification) cells. The assay can be described thus: cell proliferation assay (CellTiterGlo), SNU-16 cells. Conditions: Homo sapiens, 72 hours. In a few lines: as §1
Assay [4] deals with DMS-114 (FGFR1 overexpression) cells. The assay can be described thus: cell proliferation assay (CellTiterGlo), DMS-114 cells. The note with it: Homo sapiens. In a few lines: as §1

Turning to `Cc1nc2ccc(Oc3ccc4ncc(-c5cnn(CC6CN6)c5)nc4c3Cl)cc2[nH]1` (stereo not drawn) [Compound 344], the IC50 is 100 to 400 nM in assay [1]; 100 to 400 nM in assay [2] (UMUC14, 72 hours); 100 to 400 nM in assay [3]; ≥ 400 nM in assay [4] (72 hours).
As for `Cc1nc2ccc(Oc3ccc4ncc(-c5cnn(CC6CCC(S(C)(=O)=O)CC6)c5)nc4c3Cl)cc2[nH]1` (stereo not drawn) [Compound 366], the IC50 was 20 to 100 nM in assay [1]; 20 to 100 nM in assay [2] (UMUC14, 72 h); 20 to 100 nM in assay [3]; ≥ 400 nM in assay [4] (DMS-114, 72 h).
As to `Cc1nc2ccc(Oc3ccc4ncc(-c5cnn([C@@H](C)CO)c5)nc4c3Cl)c(F)c2[nH]1` [Compound 106], the IC50 in assay [1] was < 20 nM; in assay [2] (UMUC14, 72 h), < 20 nM; in assay [3], < 20 nM; in assay [4] (DMS-114, 72 h), 100 to 400 nM.
`COC1CN([C@H]2C[C@H](n3cc(-c4cnc5ccc(Oc6ccc7nc(C)[nH]c7c6)c(Cl)c5n4)cn3)C2)C1` [Compound 202]: the IC50 in assay [1] is 20 to 100 nM; in assay [2] (UMUC14, 72 h), 20 to 100 nM; in assay [3], 20 to 100 nM; in assay [4] (DMS-114, 72 h), ≥ 400 nM.
With `Cc1nc2ccc(Oc3ccc4ncc(-c5cnn(C6CCNCC6)c5)nc4c3C3CC3)cc2[nH]1` [Compound 289], the IC50 was in the range of 20 to 100 nM in assay [1]; 20 to 100 nM in assay [2] (UMUC14, 72 h); 20 to 100 nM in assay [3]; 100 to 400 nM in assay [4] (DMS-114, 72 h).
In the case of `Cc1nc2ccc(Oc3ccc4ncc(-c5cnn(C6CN(CC(F)F)C6)c5)nc4c3Cl)cc2[nH]1` [Compound 221], the IC50 in assay [1] is 20 to 100 nM; in assay [2] (UMUC14, 72 h), 20 to 100 nM; in assay [3], 20 to 100 nM; in assay [4] (DMS-114, 72 h), ≥ 400 nM.
`Cc1nc2ccc(Oc3ccc4ncc(-c5cnn(CC6CCN(C(N)=O)CC6)c5)nc4c3Cl)cc2[nH]1` [Compound 354]: the IC50 is < 20 nM in assay [1]; 20 to 100 nM in assay [2] (UMUC14, 72 h); 20 to 100 nM in assay [3]; 100 to 400 nM in assay [4] (DMS-114, 72 h).
Turning to `Cc1nc2ccc(Oc3ccc4ncc(-c5cnn(C6CCN(C(=O)N7CC(O)C7)CC6)c5)nc4c3Cl)cc2[nH]1` [Compound 189], the IC50 in assay [1] is 20 to 100 nM; in assay [2] (UMUC14, 72 h), 20 to 100 nM; in assay [3] it was 20 to 100 nM; in assay [4] (DMS-114, 72 h), ≥ 400 nM.
For `Cc1nc2ccc(Oc3ccc4ncc(-c5cnn(C(C)(C)CC#N)c5)nc4c3Cl)cc2[nH]1` [Compound 255], the half-inhibitory concentration (IC50) was 20 to 100 nM in assay [1]; 20 to 100 nM in assay [2] (UMUC14, 72 h); 20 to 100 nM in assay [3]; ≥ 400 nM in assay [4] (DMS-114, 72 h).
On to `Cc1nc2ccc(Oc3ccc4ncc(-c5cnn(CC6CC(F)(F)C6)c5)nc4c3C3CCOCC3)cc2[nH]1` [Compound 94], for which the IC50 in assay [1] is ≥ 400 nM; in assay [2] (UMUC14, 72 h) it was ≥ 400 nM; in assay [3] it was ≥ 400 nM; in assay [4] (DMS-114, 72 h) it was ≥ 400 nM.
For `Cc1nc2ccc(Oc3ccc4ncc(-c5cnn([C@H]6CC[C@@H](N7CCC7)CC6)c5)nc4c3Cl)cc2[nH]1` [Compound 356], the IC50 in assay [1] is 20 to 100 nM; in assay [2] (UMUC14, 72 h), 20 to 100 nM; in assay [3], 20 to 100 nM; in assay [4] (DMS-114, 72 h), 100 to 400 nM.
Regarding `Cc1nc2ccc(Oc3ccc4ncc(-c5cnn(C6CC7(CNC7)C6)c5)nc4c3Cl)cc2[nH]1` [Compound 256], the IC50 in assay [1] was 100 to 400 nM; in assay [2] (UMUC14, 72 h) it was 100 to 400 nM; in assay [3] it was 100 to 400 nM; in assay [4] (DMS-114, 72 h), ≥ 400 nM.
Regarding `Cc1nc2ccc(Oc3ccc4ncc(-c5cnn([C@H]6CC[C@H](N7CCC7)CC6)c5)nc4c3Cl)cc2[nH]1` [Compound 355], the IC50 in assay [1] was in the range of 20 to 100 nM; in assay [2] (UMUC14, 72 h), 20 to 100 nM; in assay [3] it was 20 to 100 nM; in assay [4] (DMS-114, 72 h), 100 to 400 nM.
On to `Cc1nc2ccc(Oc3ccc4ncc(-c5cnn(CC6CC(O)C6)c5)nc4c3Cl)cc2[nH]1` (stereo not drawn) [Compound 325], for which the IC50 was < 20 nM in assay [1]; 20 to 100 nM in assay [2] (UMUC14, 72 h); < 20 nM in assay [3]; ≥ 400 nM in assay [4] (DMS-114, 72 h).
Regarding `Cc1nc2ccc(Oc3ccc4ncc(-c5cnn(CC6CCN(C)S(=O)(=O)C6)c5)nc4c3Cl)cc2[nH]1` (stereo not drawn) [Compound 240], the IC50 in assay [1] lay in the range of 20 to 100 nM; in assay [2] (UMUC14, 72 h), 20 to 100 nM; in assay [3], 20 to 100 nM; in assay [4] (DMS-114, 72 h) it was 100 to 400 nM.
On to `Cc1nc2ccc(Oc3ccc4ncc(-c5cnn(CC6CC7CC6CN7CC(N)=O)c5)nc4c3Cl)cc2[nH]1` (stereo not drawn) [Compound 329], for which the IC50 was < 20 nM in assay [1]; < 20 nM in assay [2] (UMUC14, 72 h); < 20 nM in assay [3]; 100 to 400 nM in assay [4] (DMS-114, 72 h).
As for `Cc1nc2ccc(Oc3ccc4ncc(-c5cnn(C(C)(C)C(=O)N6CC[C@@H](F)C6)c5)nc4c3Cl)cc2[nH]1` [Compound 210], the IC50 is 20 to 100 nM in assay [1]; 100 to 400 nM in assay [2] (UMUC14, 72 h); 100 to 400 nM in assay [3]; ≥ 400 nM in assay [4] (DMS-114, 72 h).
Turning to `Cc1nc2ccc(Oc3ccc4ncc(-c5cnn(CC(=O)N6CCOC(C)(C)C6)c5)nc4c3Cl)cc2[nH]1` [Compound 188], the IC50 in assay [1] was 20 to 100 nM; in assay [2] (UMUC14, 72 h), 20 to 100 nM; in assay [3] it was 20 to 100 nM; in assay [4] (DMS-114, 72 h) it was ≥ 400 nM.

What is called IC50 is the point on the concentration scale where inhibition reaches its midpoint. Read a low IC50 as greater potency.

For the origin of these results see patent US20240368181A1, “QUINOXALINE DERIVATIVES AND USES THEREOF” (Black Diamond Therapeutics, Inc., priority 2021, published 2024).
